Values joined by “and” are separate entries in the source; they are usually repeats but may differ in a detail not shown here. Equal entries are not always repeated.
Legend:
mASIC1a = molecular target: T1, mASIC1a (Mus musculus, UniProt Q6NXK8); assay: Whole-cell patch clamp recording, mASIC1a-expressing HEK293T cells; assay type: cell-based; conditions: NGCC 1 mM; holding -70 mV; n = 5
T1 construct: expressed in transfected cells; host or cells: HEK293T (cDNA gift from John A. Wemmie, University of Iowa)
T1 sequence (Q6NXK8 1-526): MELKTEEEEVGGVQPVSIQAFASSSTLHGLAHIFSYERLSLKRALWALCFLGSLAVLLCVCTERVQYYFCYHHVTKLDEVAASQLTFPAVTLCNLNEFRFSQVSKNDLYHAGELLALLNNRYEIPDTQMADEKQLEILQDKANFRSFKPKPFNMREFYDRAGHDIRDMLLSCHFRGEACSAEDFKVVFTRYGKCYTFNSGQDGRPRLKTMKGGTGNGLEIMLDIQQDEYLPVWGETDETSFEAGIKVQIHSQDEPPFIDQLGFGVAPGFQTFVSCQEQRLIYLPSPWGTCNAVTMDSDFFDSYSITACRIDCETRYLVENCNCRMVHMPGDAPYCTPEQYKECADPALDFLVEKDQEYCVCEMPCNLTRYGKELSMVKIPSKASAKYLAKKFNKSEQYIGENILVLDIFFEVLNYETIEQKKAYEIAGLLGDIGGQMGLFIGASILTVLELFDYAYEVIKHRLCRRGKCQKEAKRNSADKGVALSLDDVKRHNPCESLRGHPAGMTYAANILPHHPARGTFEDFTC
Experimental: Mouse ASIC1a (mASIC1a) was a kind gift from John A. Wemmie (University of Iowa, IA, USA). For electrophysiological experiments, HEK293T cells were cultured in DMEM supplemented with 10% FBS and 0.2% penicillin/streptomycin and transiently transfected using Lipofectamine 2000 (Invitrogen) with various cDNAs. For TRPV1 channel expression, cells were transfected with hTRPV1, for ASIC1a homomeric channel expression, cells were transfected with mASIC1a. When needed, 0.1–0.2 µg of cDNA encoding tetrameric red fluorescence protein (DsRed) was co-transfected with the cDNA as a marker for successfully transfected cells. For non-transfected cells, cells were transfected with 0.1–0.2 µg of cDNA encoding DsRed alone. The next day, cells were plated onto poly-L-lysine-coated coverslip chips, and fluorescent cells were studied within 1–2 days.
The whole-cell configuration was used to voltage-clamp at room temperature (22–25°C). Electrodes pulled from glass micropipette capillaries (Sutter Instrument) had resistances of 2–2.5 MΩ, and series resistance errors were compensated >60%. Fast and slow capacitances were compensated before the application of test-pulse. Recordings were performed using aHEKAEPC-10 amplifier with pulse software (HEKA Elektronik). […] TRPV1 and TRPA1 currents were recorded by holding the cell at −80 mV. […] ASIC currents were recorded by holding the cell at −70 mV. […]

NaCl taste perception = tested on: NaCl taste perception; parameters: method as in PMID 23221408; conditions: NGCC 5 and 10 µM; cited from earlier work
hTRPV1 = molecular target: T2, hTRPV1 (Homo sapiens, UniProt Q8NER1); assay: Measurement of Ca2+ influx (Fluo-4 AM, FlexStation III) in hTRPV1-expressing cells; assay type: cell-based
T2 construct: expressed in transfected cells; host or cells: HEK293T
Experimental: hTRPV1 was constructed by amplification of the hTRPV1 region (NCBI accession number: NG_029716.1) and cloned into pEAK10 vector (Edge Biosystems, Gaithersburg, MD, USA). The hTRPV1 construct was amplified by PCR and the nucleotide sequence of the hTRPV1 gene was confirmed by sequencing with an ABI 3130 DNA genetic analyzer (Applied Biosystems, Foster City, CA, USA). […] After 6 h, transfected cells were seeded onto 96-well black-wall plate (BD Falcon Labware, Franklin Lakes, NJ, USA) for 18–26 h prior to their use in an experiment. The ligand-induced changes on cytosolic Ca^2+ level were monitored by a FlexStation III microplate reader (Molecular Devices). Fluo-4 AM (5 µM, Molecular Probes, Eugene, OR, USA) in assay buffer was loaded to the cells in 96-well black-wall plates for 30 min at 27°C. After dye treatment, each chemical was added to each well at 17 s and changes on intracellular Ca^2+ level were monitored by relative fluorescence units (ΔRFU, Ex = 485 nm; Em = 516 nm) for 120 s. […] The responses from at least three wells receiving the same stimulus were averaged. Plots of amplitude versus concentration were fitted using the Hill equation.

hTRPA1 = molecular target: T3, hTRPA1 (Homo sapiens, UniProt O75762); assay: Measurement of Ca2+ influx (Fluo-4 AM, FlexStation III) in hTRPA1-expressing cells; assay type: cell-based; conditions: hTRPA1-expressing Flp-In 293 cells, Hill fit
T3 construct: expressed in transfected cells
Experimental: Flp-In 293 cell lines stably expressing hTRPA1constructed as previously reported was a gift from the professor Takumi Misaka at University of Tokyo. The hTRPA1-expressing cells were cultured in DMEM containing 10% FBS and 0.02% hygromycin B (Invitrogen). Flp-In 293 cell lines were maintained in DMEM containing 10% FBS. All cells were incubated at 37°C in a humidified atmosphere of 5% CO2.
The ligand-induced changes on cytosolic Ca^2+ level were monitored by a FlexStation III microplate reader (Molecular Devices). Fluo-4 AM (5 µM, Molecular Probes, Eugene, OR, USA) in assay buffer was loaded to the cells in 96-well black-wall plates for 30 min at 27°C. After dye treatment, each chemical was added to each well at 17 s and changes on intracellular Ca^2+ level were monitored by relative fluorescence units (ΔRFU, Ex = 485 nm; Em = 516 nm) for 120 s. […] The responses from at least three wells receiving the same stimulus were averaged. Plots of amplitude versus concentration were fitted using the Hill equation.

T2 sequence (Q8NER1 whole entry): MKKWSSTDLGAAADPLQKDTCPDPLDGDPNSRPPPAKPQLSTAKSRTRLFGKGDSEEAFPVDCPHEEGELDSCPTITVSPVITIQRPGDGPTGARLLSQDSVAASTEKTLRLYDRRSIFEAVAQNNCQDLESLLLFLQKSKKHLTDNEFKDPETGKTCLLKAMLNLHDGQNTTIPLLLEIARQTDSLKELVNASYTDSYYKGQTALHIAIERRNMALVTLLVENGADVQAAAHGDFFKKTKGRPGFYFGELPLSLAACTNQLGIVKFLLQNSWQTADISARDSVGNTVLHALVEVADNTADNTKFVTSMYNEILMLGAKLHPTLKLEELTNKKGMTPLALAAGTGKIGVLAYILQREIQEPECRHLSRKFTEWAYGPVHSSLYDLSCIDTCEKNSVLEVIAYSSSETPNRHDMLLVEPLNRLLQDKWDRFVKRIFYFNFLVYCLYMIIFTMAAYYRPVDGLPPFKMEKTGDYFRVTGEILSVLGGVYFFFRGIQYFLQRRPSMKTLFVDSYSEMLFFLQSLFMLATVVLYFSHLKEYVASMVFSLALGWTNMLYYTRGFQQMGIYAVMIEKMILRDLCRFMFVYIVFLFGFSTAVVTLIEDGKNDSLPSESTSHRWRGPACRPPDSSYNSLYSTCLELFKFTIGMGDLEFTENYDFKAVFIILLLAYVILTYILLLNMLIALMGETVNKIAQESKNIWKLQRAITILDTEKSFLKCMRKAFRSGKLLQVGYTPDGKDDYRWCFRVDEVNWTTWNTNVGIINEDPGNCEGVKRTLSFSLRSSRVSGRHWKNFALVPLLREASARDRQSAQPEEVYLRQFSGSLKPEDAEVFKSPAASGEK
T3 sequence (O75762 whole entry): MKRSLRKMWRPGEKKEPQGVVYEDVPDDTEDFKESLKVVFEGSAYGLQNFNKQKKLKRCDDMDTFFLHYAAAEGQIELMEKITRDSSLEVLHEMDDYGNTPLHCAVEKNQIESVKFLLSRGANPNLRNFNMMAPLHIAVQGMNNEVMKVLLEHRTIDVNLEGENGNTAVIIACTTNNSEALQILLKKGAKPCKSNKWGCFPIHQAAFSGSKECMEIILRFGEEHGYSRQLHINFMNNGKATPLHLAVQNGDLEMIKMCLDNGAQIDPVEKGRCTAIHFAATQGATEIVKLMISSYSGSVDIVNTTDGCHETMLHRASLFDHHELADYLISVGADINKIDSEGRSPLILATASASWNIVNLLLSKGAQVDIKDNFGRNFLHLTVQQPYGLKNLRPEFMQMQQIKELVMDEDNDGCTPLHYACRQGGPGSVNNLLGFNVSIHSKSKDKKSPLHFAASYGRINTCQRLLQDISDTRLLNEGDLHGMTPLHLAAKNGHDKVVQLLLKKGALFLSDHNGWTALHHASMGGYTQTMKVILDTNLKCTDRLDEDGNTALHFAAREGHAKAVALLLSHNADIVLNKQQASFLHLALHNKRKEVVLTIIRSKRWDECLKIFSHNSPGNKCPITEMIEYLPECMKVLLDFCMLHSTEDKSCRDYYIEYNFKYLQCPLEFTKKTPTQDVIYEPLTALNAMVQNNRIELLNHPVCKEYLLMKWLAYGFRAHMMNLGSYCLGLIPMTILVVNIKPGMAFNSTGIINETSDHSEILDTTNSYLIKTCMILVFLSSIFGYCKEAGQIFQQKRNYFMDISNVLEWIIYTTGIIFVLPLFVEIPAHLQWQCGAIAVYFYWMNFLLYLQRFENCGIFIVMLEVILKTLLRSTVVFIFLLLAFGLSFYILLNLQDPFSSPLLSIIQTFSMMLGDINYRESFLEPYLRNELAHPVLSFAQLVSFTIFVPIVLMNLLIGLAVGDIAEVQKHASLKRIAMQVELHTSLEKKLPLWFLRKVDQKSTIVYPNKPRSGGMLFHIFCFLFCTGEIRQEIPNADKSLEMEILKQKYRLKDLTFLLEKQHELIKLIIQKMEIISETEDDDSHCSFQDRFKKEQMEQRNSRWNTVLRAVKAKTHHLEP

activation of ASIC1a homomeric channels (mASIC1a): not sensitive | EC50 (hTRPV1; hTRPV1-expressing HEK293T cells, Hill fit): 115 µM and ~115 µM | increase in [Ca2+]i relative to capsaicin (hTRPV1; hTRPV1-expressing cells): significantly smaller increase | EC50 (hTRPA1): 83.7 µM
Structure (SMILES): CC(C)=CCC/C(C)=C/CNC(=O)C1CC1 [NGCC, N-geranylcyclopropylcarboxamide]
effect on NaCl taste in human sensory studies (NaCl taste perception): significant enhancement in NaCl taste

— paper PMC3930709, “Selective Activation of hTRPV1 by N-Geranyl Cyclopropylcarboxamide, an Amiloride-Insensitive Salt Taste Enhancer” (PLoS ONE, 2014)
